# Tested on: strain AQP096
# Assay: Induction of the carotenoid biosynthetic pathway using menadione, HPLC carotenoid analysis
# Format: cell-based, Algibacter sp. AQP096
# Description: On the HPLC using a reverse phase Gemini C-18 250×4.6 mm column, 10 μl of pigment sample was eluted with a linear gradient from 10% v/v Acetone in Water: 100% Acetone (30:70) to 10% v/v Acetone in Water:100% Acetone (5:95) for 10 min followed with a 6 minute run of 10% v/v Acetone in Water:100% Acetone (5:95) before returning to the start conditions of 10% v/v Acetone in Water: 100% Acetone (30:70) with a 1 min linear gradient and a two minute run of 10% v/v Acetone in Water:100% Acetone (30:70) at a flow rate of 1.3 ml/min. Detection was at 450 nm. Menadione at a concentration of 0.100 mg/ml was added to a 24 hr old culture of AQP096 cultured in marine broth. This culture was further incubated for 4 days on the orbital shaker at 220 rpm […]. After 5 days of incubation, cultures were centrifuged (4,500 rpm, 20 min) and the pigments analysed for carotenoid content by HPLC (See FIGS. 4a and 4b).
compound,measurement,setting,value
CC1=CC(=O)c2ccccc2C1=O [menadione],induced production of astaxanthin,menadione 0.100 mg/ml,~12%
same,induced production of beta carotene,menadione 0.100 mg/ml,about 10%
same,induced production of beta-cryptoxanthin,menadione 0.100 mg/ml,~8%
same,induced production of canthaxanthin,menadione 0.100 mg/ml,~12%
same,induced production of lycopene,menadione 0.100 mg/ml,~6%
same,induced production of other carotenoids such as adonirubin and 3-hydroxyechinenone,menadione 0.100 mg/ml,~2%
same,effect on carotenoid production,"menadione 0.100 mg/ml added to 24 hr old culture in marine broth, HPLC",induced the production of all carotenoids associated with the standard carotenoid biosynthetic pathway
same,amount of zeaxanthin produced by AQP096,"menadione 0.100 mg/ml, 98% under standard growth conditions",around 60%
